In brackets after ≈: the same amount, converted by molar mass. One block for each compound: values may come before it.
Tests used:
[1] = target: T1, Dihydroorotate dehydrogenase (quinone), mitochondrial (Homo sapiens, UniProt Q02127); assay: Inhibition of human DHODH using dihydroorotate as substrate and CoQ10 as co-substrate preincubated for 30 mins followed by substrate addition by DCIP coupled microplate reader assay
[2] = target: T1, Dihydroorotate dehydrogenase (quinone), mitochondrial; assay: Inhibition of recombinant human DHODH expressed in baculovirus infected insect cells using dihydroorotate as substrate and decylubiquinone as co-substrate by 2,6-dichlorophenol-indophenol-coupled spectrophotometric analysis
NAMALVA = assay: Antiproliferative activity against human NAMALWA cells assessed as reduction in cell viability measured after 48 hrs by MTT assay; format: functional, cell-based; settings: Homo sapiens, NAMALVA, 48 h
MCF7 = assay: Antiproliferative activity against human MCF7 cells assessed as reduction in cell viability measured after 48 hrs by MTT assay; format: functional, cell-based; settings: Homo sapiens, MCF7, 48 h
Raji = assay: Antiproliferative activity against human Raji cells assessed as reduction in cell viability measured after 48 hrs by MTT assay; format: functional, cell-based; settings: Homo sapiens, Raji, 48 h
A549 = assay: Antiproliferative activity against human A549 cells assessed as reduction in cell viability measured after 48 hrs by MTT assay; format: functional, cell-based; settings: Homo sapiens, A549, 48 h
K562 = assay: Antiproliferative activity against human K562 cells assessed as reduction in cell viability measured after 48 hrs by MTT assay; format: functional, cell-based; settings: Homo sapiens, K562, 48 h
A-375 = assay: Antiproliferative activity against human A375 cells assessed as reduction in cell viability measured after 48 hrs by MTT assay; format: functional, cell-based; settings: Homo sapiens, A-375, 48 h
HeLa = assay: Antiproliferative activity against human HeLa cells assessed as reduction in cell viability measured after 48 hrs by MTT assay; format: functional, cell-based; settings: Homo sapiens, HeLa, 48 h
HCT-116 = assay: Antiproliferative activity against human HCT116 cells assessed as reduction in cell viability measured after 48 hrs by MTT assay; format: functional, cell-based; settings: Homo sapiens, HCT-116, 48 h
[3] = Solubility of the compound in PBS; format: physicochemical

T1 sequence (Q02127 whole entry): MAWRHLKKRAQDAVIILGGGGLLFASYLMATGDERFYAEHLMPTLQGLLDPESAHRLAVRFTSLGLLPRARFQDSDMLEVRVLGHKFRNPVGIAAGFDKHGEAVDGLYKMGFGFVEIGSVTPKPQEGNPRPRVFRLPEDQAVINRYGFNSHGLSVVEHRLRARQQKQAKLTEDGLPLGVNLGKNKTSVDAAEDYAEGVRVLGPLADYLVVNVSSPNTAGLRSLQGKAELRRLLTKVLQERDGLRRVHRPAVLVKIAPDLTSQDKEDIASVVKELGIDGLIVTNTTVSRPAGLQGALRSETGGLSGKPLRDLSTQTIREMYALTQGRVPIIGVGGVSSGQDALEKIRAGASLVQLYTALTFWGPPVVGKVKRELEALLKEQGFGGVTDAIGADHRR

IC50 [1]: > 1 µM
Structure (SMILES): O=C1c2ccccc2C(=O)c2c1nnn2-c1ccc(Cl)nc1

IC50 [2]: 0.067 µM
Structure (SMILES): O=C1C(O)=C(CC=C(Cl)Cl)C(=O)c2ccccc21

IC50 [1]: 0.52 µM
Structure (SMILES): CC(C)C1CC(=O)c2nnn(-c3cc(F)c(-c4ccccc4F)c(F)c3)c2C1 (stereo not drawn)

IC50 [1]: > 1 µM
Structure (SMILES): O=C1c2cc(O)ccc2C(=O)c2c1nnn2-c1cc(F)c(-c2ccccc2F)c(F)c1

IC50 [1]: 0.55 µM
Structure (SMILES): COC(=O)c1cccc(-c2ccc(-n3nnc4c3C(=O)c3ccccc3C4=O)cc2)c1

IC50 [1]: > 1 µM
Structure (SMILES): O=C1c2ccccc2C(=O)c2c1nnn2-c1ccnc(Cl)c1

IC50 [1]: > 1 µM
Structure (SMILES): CC1(C)CC(=O)c2nnn(-c3cc(F)c(-c4ccccc4F)c(F)c3)c2C1

IC50 (MCF7): > 10 µM
IC50 (Raji): 3.76 µM
IC50 (A549): > 10 µM
IC50 (K562): 2.41 µM
IC50 (A-375): 0.42 µM
IC50 (HeLa): > 10 µM
IC50 [1]: 0.0046 µM
IC50 (HCT-116): 1.61 µM
solubility [3]: < 10 µg/mL
Structure (SMILES): COC(=O)Cc1cccc(-c2c(F)cc(-n3nnc4c3C(=O)c3ccccc3C4=O)cc2F)c1
IC50 (NAMALVA): > 10 µM

IC50 (MCF7): > 10 µM
IC50 (Raji): > 10 µM
IC50 (A549): > 10 µM
IC50 (K562): > 10 µM
IC50 (A-375): 0.16 µM
IC50 (HeLa): > 10 µM
IC50 [1]: 0.0051 µM
IC50 (HCT-116): 0.58 µM
solubility [3]: < 10 µg/mL
Structure (SMILES): OC1c2ccccc2C(O)c2c1nnn2-c1cc(F)c(-c2ccccc2F)c(F)c1 (stereo not drawn)
IC50 (NAMALVA): > 10 µM

IC50 [1]: > 1 µM
Structure (SMILES): O=C1c2ccccc2C(=O)c2c1nnn2-c1ccc(N2CCOCC2)nc1

IC50 [1]: > 1 µM
Structure (SMILES): N#Cc1ccccc1-n1nnc2c1C(=O)c1ccccc1C2=O

IC50 [1]: > 1 µM
Structure (SMILES): COc1ccc2c(c1)C(=O)c1c(nnn1-c1cc(F)c(-c3ccccc3F)c(F)c1)C2=O

IC50 [1]: > 1 µM
Structure (SMILES): O=C1c2ccccc2C(=O)c2c1nnn2-c1cccc(I)c1

IC50 [1]: > 1 µM
Structure (SMILES): O=C1c2ccccc2C(=O)c2c1nnn2-c1ccncc1

IC50 [1]: > 1 µM
Structure (SMILES): O=C1c2ccccc2C(=O)c2c1nnn2-c1ccc(-c2ccncc2)cc1

IC50 [1]: 0.56 µM
Structure (SMILES): CC(C)c1ccc(-n2nnc3c2C(=O)c2ccccc2C3=O)cc1

IC50 [1]: 0.152 µM
Structure (SMILES): O=C1c2ccc(F)cc2C(=O)c2c1nnn2-c1cc(F)c(-c2ccccc2F)c(F)c1

IC50 [1]: > 1 µM
Structure (SMILES): Cc1cc(-c2ccc(-n3nnc4c3C(=O)c3ccccc3C4=O)cc2)ccn1

IC50 [1]: > 1 µM
Structure (SMILES): Cc1ccc(-n2nnc3c2C(=O)c2ccccc2C3=O)cc1C(F)(F)F

IC50 (MCF7): > 10 µM
IC50 (Raji): 3.31 µM
IC50 (A549): > 10 µM
IC50 (K562): > 10 µM
IC50 (A-375): 0.03 µM
IC50 (HeLa): > 10 µM
IC50 [1]: 0.0012 µM
IC50 (HCT-116): 2.21 µM
solubility [3]: 14.6 µg/mL (≈ 35 µM)
Structure (SMILES): O=C1c2ccccc2C(=O)c2c1nnn2-c1cc(F)c(-c2cccc(CO)c2)c(F)c1
IC50 (NAMALVA): > 10 µM

IC50 [1]: 0.098 µM
Structure (SMILES): O=C1c2cc(F)ccc2C(=O)c2c1nnn2-c1cc(F)c(-c2ccccc2F)c(F)c1

IC50 (MCF7): > 10 µM
IC50 (Raji): 4.61 µM
IC50 (A549): > 10 µM
IC50 (K562): > 10 µM
IC50 (A-375): 5.83 µM
IC50 (HeLa): > 10 µM
IC50 [1]: 0.019 µM
IC50 (HCT-116): 4.23 µM
Structure (SMILES): O=C1c2ccccc2C(=O)c2c1nnn2-c1ccc(-c2ccccc2)cc1
IC50 (NAMALVA): 1.87 µM

IC50 [1]: > 1 µM
Structure (SMILES): CC(C)c1ccc(-c2ccc(-n3nnc4c3C(=O)c3ccccc3C4=O)c(F)c2)cc1

IC50 [1]: > 1 µM
Structure (SMILES): O=C1CCCc2c1nnn2-c1cc(F)c(-c2ccccc2F)c(F)c1

IC50 [1]: 0.422 µM
Structure (SMILES): O=C1c2ccccc2C(=O)c2c1nnn2-c1ccc(-c2cccnc2)cc1

IC50 [1]: 0.1 µM
Structure (SMILES): COc1cccc(-c2ccc(-n3nnc4c3C(=O)c3ccccc3C4=O)cc2)c1

IC50 (MCF7): > 10 µM
IC50 (Raji): 2.23 µM
IC50 (A549): > 10 µM
IC50 (K562): 1.87 µM
IC50 (A-375): 2.98 µM
IC50 (HeLa): > 10 µM
IC50 [1]: 0.0045 µM
IC50 (HCT-116): 3.33 µM
solubility [3]: < 10 µg/mL
Structure (SMILES): O=C1c2ccccc2C(=O)c2c1nnn2-c1ccc(-c2ccccc2F)cc1
IC50 (NAMALVA): 2.79 µM

IC50 [1]: 0.056 µM
Structure (SMILES): O=C1c2ccccc2C(=O)c2c1nnn2-c1ccc(-c2cccc(F)c2)cc1

IC50 [1]: > 1 µM
Structure (SMILES): Nc1cccc(-n2nnc3c2C(=O)c2ccccc2C3=O)c1
